Reference: US20100298141A1, “SUBSTITUTED PYRIDINE N-OXIDE HERBICIDES” (E. I. DU PONT DE NEMOURS AND COMPANY, priority 2007, published 2010)

How the values were obtained:
[1] = tested on: blackgrass; experiment: Test C pre-/postemergence test; assay type: in vivo, Alopecurus myosuroides
Outline: (§1)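 Seeds were planted and treated preemergence with test chemical in a non-phytotoxic solvent mixture containing surfactant. Postemergence applications of the same formulation went onto plants 2 to 18 cm tall (1- to 4-leaf stage). A dash marks no test result.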

[2] = tested on: Surinam grass; experiment: Test C pre-/postemergence test; assay type: in vivo, Brachiaria decumbens; conditions: for Surinam Grass plant response rating: preemergence, scale 0 (no effect) to 100 (complete control)
Outline: as §1

[3] = tested on: giant foxtail; experiment: Test A pre-/postemergence greenhouse test; assay type: in vivo, Setaria faberi; conditions: for Plant response rating, Foxtail, Giant: 0 to 100 scale where 0 is no effect and 100 is complete control; for Foxtail, Giant plant response rating: 0 to 100 scale
Outline: (§2)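 Seeds sown in a loam soil–sand blend got a preemergence directed soil spray of compound in a non-phytotoxic solvent mixture containing surfactant. Postemergence sprays of the same formulation went at the same time onto plants 2–10 cm tall at the one- to two-leaf stage. Injury was scored visually against untreated controls after about ten days in the greenhouse.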

[4] = tested on: barnyardgrass; experiment: Test A pre-/postemergence greenhouse test; assay type: in vivo, Echinochloa crus-galli; conditions: for Plant response rating, Barnyardgrass: 0 to 100 scale where 0 is no effect and 100 is complete control; for Barnyardgrass plant response rating: 0 to 100 scale
Outline: as §2

[5] = tested on: crabgrass; experiment: Test A pre-/postemergence greenhouse test; assay type: in vivo, Digitaria sanguinalis; conditions: for Plant response rating, Crabgrass, Large: 0 to 100 scale where 0 is no effect and 100 is complete control; for Crabgrass, Large plant response rating: 0 to 100 scale
Outline: as §2

[6] = tested on: barnyardgrass; experiment: Test C flooded paddy test; assay type: in vivo, Echinochloa crus-galli; conditions: Flood
Outline: (§3)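 Visual injury ratings against untreated controls, taken 13 to 15 days after compound was added to paddy water standing 3 cm above the soil.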

[7] = tested on: common ragweed; experiment: Test C pre-/postemergence test; assay type: in vivo, Ambrosia elation
Outline: as §1

[8] = tested on: soybean; experiment: Test C pre-/postemergence test; assay type: in vivo, Glycine max
Outline: as §1

[9] = tested on: downy brome; experiment: Test C pre-/postemergence test; assay type: in vivo, Bromus tectorum
Outline: as §1

[10] = tested on: pigweed; experiment: Test C pre-/postemergence test; assay type: in vivo, Amaranthus retroflexus
Outline: as §1

[11] = tested on: green foxtail; experiment: Test C pre-/postemergence test; assay type: in vivo, Setaria viridis
Outline: as §1

[12] = tested on: velvetleaf; experiment: Test A pre-/postemergence greenhouse test; assay type: in vivo, Abutilon theophrasti; conditions: for Plant response rating, Velvetleaf: 0 to 100 scale where 0 is no effect and 100 is complete control; for Velvetleaf plant response rating: 0 to 100 scale
Outline: as §2

[13] = tested on: duck salad; experiment: Test C flooded paddy test; assay type: in vivo, Heteranthera limosa; conditions: Flood
Outline: as §3

[14] = tested on: woolly cupgrass; experiment: Test C pre-/postemergence test; assay type: in vivo, Eriochloa villosa
Outline: as §1

[15] = tested on: lambsquarters; experiment: Test C pre-/postemergence test; assay type: in vivo, Chenopodium album
Outline: as §1

[16] = tested on: velvetleaf; experiment: Test C pre-/postemergence test; assay type: in vivo, Abutilon theophrasti
Outline: as §1

[17] = 62 g ai/ha, Preemergence, scale 0 to 100
[18] = 125 g ai/ha, preemergence, scale 0 (no effect) to 100 (complete control)
[19] = Preemergence, 31 g ai/ha, scale 0 to 100 (0 no effect, 100 complete control)
[20] = preemergence, 250 g ai/ha, scale 0 (no effect) to 100 (complete control)
[21] = Postemergence, 500 g ai/ha, 0 is no effect, 100 is complete control
[22] = Preemergence, 125 g ai/ha, 0 no effect, 100 complete control
[23] = 62 g ai/ha, scale 0 to 100 (0 no effect, 100 complete control)
[24] = 250 g ai/ha, scale 0 to 100, 0 no effect, 100 complete control, 13 to 15 days
[25] = Postemergence, 62 g ai/ha, scale 0 to 100, 0 no effect, 100 complete control
[26] = Postemergence, 125 g ai/ha, scale 0 to 100, 0 no effect, 100 complete control
[27] = Postemergence, 250 g ai/ha, scale 0 to 100, 0 no effect, 100 complete control

Cn1nc(C(F)(F)F)c(CS(=O)(=O)c2ccc(Cl)c[n+]2[O-])c1OCC(F)(F)F [Compound 73]
Blackgrass plant response rating [1, 17]: 98 | Blackgrass plant response rating [1, 18]: 100 | Plant response rating, Blackgrass [1, 19]: 98 | Blackgrass plant response rating [1, 20]: 100 | Surinam Grass plant response rating ([2]; 125 g ai/ha): 80 | Plant response rating, Surinam Grass [2, 19]: 40 | Surinam Grass plant response rating ([2]; 250 g ai/ha): 80 | Plant response rating, Foxtail, Giant ([3]; Postemergence, 125 g ai/ha): 70 | Foxtail, Giant plant response rating [3, 21]: 90 | Foxtail, Giant plant response rating [3, 22]: 90 | Plant response rating, Foxtail, Giant ([3]; Preemergence, 500 g ai/ha): 100 | Plant response rating, Barnyardgrass ([4]; Postemergence, 125 g ai/ha): 70 | Barnyardgrass plant response rating [4, 21]: 80 | Barnyardgrass plant response rating [4, 22]: 90 | Plant response rating, Barnyardgrass ([4]; Preemergence, 500 g ai/ha): 90 | Plant response rating, Crabgrass, Large ([5]; Postemergence, 125 g ai/ha): 60 | Crabgrass, Large plant response rating [5, 21]: 80 | Crabgrass, Large plant response rating [5, 22]: 70 | Plant response rating, Crabgrass, Large ([5]; Preemergence, 500 g ai/ha): 90 | Plant response rating, Barnyardgrass [6, 23]: 0 | Plant response rating, Barnyardgrass [6, 24]: 65 | Ragweed plant response rating [7, 17]: 70 | Ragweed plant response rating [7, 18]: 95 | Plant response rating, Ragweed [7, 19]: 60 | Ragweed plant response rating [7, 20]: 100 | Soybean plant response rating [8, 17]: 0 | Plant response rating, Soybean [8, 19]: 0 | Soybean plant response rating [8, 20]: 70 | Bromegrass, Downy plant response rating [9, 17]: 60 | Bromegrass, Downy plant response rating [9, 18]: 60 | Plant response rating, Bromegrass, Downy [9, 19]: 0 | Bromegrass, Downy plant response rating [9, 20]: 100 | Pigweed plant response rating [10, 17]: 100 | Pigweed plant response rating [10, 18]: 100 | Plant response rating, Pigweed [10, 19]: 90 | Pigweed plant response rating [10, 20]: 100 | Foxtail, Green plant response rating [11, 17]: 70 | Foxtail, Green plant response rating [11, 18]: 100 | Plant response rating, Foxtail, Green [11, 19]: 70 | Plant response rating, Velvetleaf ([12]; Postemergence, 125 g ai/ha): 0 | Velvetleaf plant response rating [12, 21]: 50 | Velvetleaf plant response rating [12, 22]: 0 | Plant response rating, Velvetleaf ([12]; Preemergence, 500 g ai/ha): 60 | Plant response rating, Ducksalad [13, 23]: 70 | Plant response rating, Ducksalad [13, 24]: 85 | Cupgrass, Woolly plant response rating [14, 17]: 80 | Cupgrass, Woolly plant response rating [14, 18]: 85 | Plant response rating, Cupgrass, Woolly [14, 19]: 60 | Cupgrass, Woolly plant response rating [14, 20]: 85 | Lambsquarters plant response rating [15, 17]: 100 | Lambsquarters plant response rating [15, 18]: 100 | Plant response rating, Lambsquarters [15, 19]: 50 | Lambsquarters plant response rating [15, 20]: 100 | Velvetleaf plant response rating [16, 17]: 30 | Velvetleaf plant response rating [16, 18]: 40 | Plant response rating, Velvetleaf [16, 19]: 0 | Velvetleaf plant response rating [16, 20]: 70

Cn1nc(C(F)(F)F)c(C[S+]([O-])c2cccc[n+]2[O-])c1OCC(F)(F)C(F)(F)F (centres unmarked) [Compound 78]
Plant response rating (0 to 100), Blackgrass ([1]; Postemergence, 31 g ai/ha): 0 | Plant response rating, Blackgrass [1, 25]: 0 | Plant response rating, Blackgrass [1, 26]: 50 | Plant response rating, Blackgrass [1, 27]: 100 | Plant response rating (0 to 100), Surinam Grass ([2]; Postemergence, 31 g ai/ha): 0 | Plant response rating (0 to 100), Surinam Grass ([2]; Postemergence, 62 g ai/ha): 0 | Plant response rating, Surinam Grass [2, 26]: 0 | Plant response rating, Surinam Grass [2, 27]: 70 | Plant response rating, Foxtail, Giant ([3]; Postemergence, 125 g ai/ha): 80 | Foxtail, Giant plant response rating [3, 21]: 80 | Foxtail, Giant plant response rating [3, 22]: 90 | Plant response rating, Foxtail, Giant ([3]; Preemergence, 500 g ai/ha): 100 | Plant response rating, Barnyardgrass ([4]; Postemergence, 125 g ai/ha): 80 | Barnyardgrass plant response rating [4, 21]: 80 | Barnyardgrass plant response rating [4, 22]: 70 | Plant response rating, Barnyardgrass ([4]; Preemergence, 500 g ai/ha): 100 | Plant response rating, Crabgrass, Large ([5]; Postemergence, 125 g ai/ha): 70 | Crabgrass, Large plant response rating [5, 21]: 80 | Crabgrass, Large plant response rating [5, 22]: 30 | Plant response rating, Crabgrass, Large ([5]; Preemergence, 500 g ai/ha): 100 | Plant response rating, Barnyardgrass [6, 23]: 0 | Plant response rating, Barnyardgrass [6, 24]: 50 | Plant response rating (0 to 100), Ragweed ([7]; Postemergence, 31 g ai/ha): 0 | Plant response rating (0 to 100), Ragweed ([7]; Postemergence, 62 g ai/ha): 0 | Plant response rating, Ragweed [7, 26]: 0 | Plant response rating, Ragweed [7, 27]: 0 | Plant response rating (0 to 100), Soybean ([8]; Postemergence, 62 g ai/ha): 20 | Plant response rating, Soybean [8, 26]: 60 | Plant response rating, Soybean [8, 27]: 65 | Plant response rating (0 to 100), Bromegrass, Downy ([9]; Postemergence, 31 g ai/ha): 0 | Plant response rating, Bromegrass, Downy [9, 25]: 0 | Plant response rating, Bromegrass, Downy [9, 26]: 0 | Plant response rating, Bromegrass, Downy [9, 27]: 0 | Plant response rating (0 to 100), Pigweed ([10]; Postemergence, 31 g ai/ha): 0 | Plant response rating (0 to 100), Pigweed ([10]; Postemergence, 62 g ai/ha): 0 | Plant response rating, Pigweed [10, 26]: 30 | Plant response rating, Pigweed [10, 27]: 35 | Plant response rating (0 to 100), Foxtail, Green ([11]; Postemergence, 31 g ai/ha): 0 | Plant response rating, Foxtail, Green [11, 25]: 0 | Plant response rating, Foxtail, Green [11, 26]: 45 | Plant response rating, Foxtail, Green [11, 27]: 80 | Plant response rating, Velvetleaf ([12]; Postemergence, 125 g ai/ha): 30 | Velvetleaf plant response rating [12, 21]: 70 | Velvetleaf plant response rating [12, 22]: 0 | Plant response rating, Velvetleaf ([12]; Preemergence, 500 g ai/ha): 90 | Plant response rating, Ducksalad [13, 23]: 30 | Plant response rating, Ducksalad [13, 24]: 70 | Plant response rating (0 to 100), Cupgrass, Woolly ([14]; Postemergence, 31 g ai/ha): 0 | Plant response rating, Cupgrass, Woolly [14, 25]: 0 | Plant response rating, Cupgrass, Woolly [14, 26]: 0 | Plant response rating, Cupgrass, Woolly [14, 27]: 20 | Plant response rating (0 to 100), Lambsquarters ([15]; Postemergence, 31 g ai/ha): 0 | Plant response rating, Lambsquarters [15, 25]: 0 | Plant response rating, Lambsquarters [15, 26]: 0 | Plant response rating, Lambsquarters [15, 27]: 0 | Plant response rating (0 to 100), Velvetleaf ([16]; Postemergence, 31 g ai/ha): 0 | Plant response rating (0 to 100), Velvetleaf ([16]; Postemergence, 62 g ai/ha): 0 | Plant response rating, Velvetleaf [16, 26]: 0 | Plant response rating, Velvetleaf [16, 27]: 20
